In the supplement of paper PMC11208160:

Experiment: recombinant barcode read abundance after kanamycin selection (control-corrected) (log10(CPM+1)); higher = more efficient recombination; sequences stand for … in AGTGCAGAGAAAATCGGCCAGTTTTCTCTGCCTGCAGTCCGCATGCCGT…ATTTATGCAGCGGACTGCCTTTCTCCCAAAGTGATAAACCGGACAGTATCATGGACCGGTTTTCCCGGTAATCCGTATTTGCAAGGTTGGTTTCACT; site = the 11-nt target
Experimental: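 Same pooled E. coli target screen (IS621 bridge recombinase, kanamycin selection, control-corrected CPM, mean of 2 biological replicates). Here the two core-binding nucleotides of the LTG and RTG of the bridge RNA target-binding loop are mutated. Target and donor CT cores are held constant, and the other 9 guide positions match the target. The target is read from the library oligo sequence. Molecule = full bridge RNA written as DNA: nt 1-80 from the library oligo, rest WT scaffold.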

Row | Sequence | recombinant barcode read abundance (log10)
1 | AAACATGTCTGGGTTCTAACCTGTTGCCTAG [AAACATGCTAG_LTGcore_TC_RTGcore_CT] (site AAACATGCTAG) (LTG core: TC, RTG core: CT) | 0.0742
2 | AAACATGTCTGGGTTCTAACCTGTTGCCTGA [AAACATGCTAG_LTGcore_TC_RTGcore_TC] (site AAACATGCTAG) (LTG core: TC, RTG core: TC) | 0.0728
3 | ACGGGACACTGGGTTCTAACCTGTTGCAGAG [ACGGGACCTCT_LTGcore_AC_RTGcore_CT] (site ACGGGACCTCT) (LTG core: AC, RTG core: CT) | 0.0883
4 | ACGGGACACTGGGTTCTAACCTGTTGCAGGT [ACGGGACCTCT_LTGcore_AC_RTGcore_AC] (site ACGGGACCTCT) (LTG core: AC, RTG core: AC) | 0.0869
5 | ACGGGACCTTGGGTTCTAACCTGTTGCAGAG [ACGGGACCTCT_LTGcore_CT_RTGcore_CT] (site ACGGGACCTCT) (LTG core: CT, RTG core: CT) | 2.63
6 | ACGGGACCTTGGGTTCTAACCTGTTGCAGCC [ACGGGACCTCT_LTGcore_CT_RTGcore_GG] (site ACGGGACCTCT) (LTG core: CT, RTG core: GG) | 1.11
7 | ACGGGACCTTGGGTTCTAACCTGTTGCAGCG [ACGGGACCTCT_LTGcore_CT_RTGcore_CG] (site ACGGGACCTCT) (LTG core: CT, RTG core: CG) | 0.0844
8 | ACGGGACCTTGGGTTCTAACCTGTTGCAGGG [ACGGGACCTCT_LTGcore_CT_RTGcore_CC] (site ACGGGACCTCT) (LTG core: CT, RTG core: CC) | 0.931
9 | ACGGGACCTTGGGTTCTAACCTGTTGCAGTA [ACGGGACCTCT_LTGcore_CT_RTGcore_TA] (site ACGGGACCTCT) (LTG core: CT, RTG core: TA) | 0.818
10 | ACGGGACCTTGGGTTCTAACCTGTTGCAGTG [ACGGGACCTCT_LTGcore_CT_RTGcore_CA] (site ACGGGACCTCT) (LTG core: CT, RTG core: CA) | 0.172
11 | ACGGGACGATGGGTTCTAACCTGTTGCAGTC [ACGGGACCTCT_LTGcore_GA_RTGcore_GA] (site ACGGGACCTCT) (LTG core: GA, RTG core: GA) | 0.229
12 | ACGGGACGGTGGGTTCTAACCTGTTGCAGCC [ACGGGACCTCT_LTGcore_GG_RTGcore_GG] (site ACGGGACCTCT) (LTG core: GG, RTG core: GG) | 0.12
13 | AGGAGGTACTGGGTTCTAACCTGTTGCCTAG [AGGAGGTCTAG_LTGcore_AC_RTGcore_CT] (site AGGAGGTCTAG) (LTG core: AC, RTG core: CT) | 0.105
14 | AGGAGGTCTTGGGTTCTAACCTGTTGCCTAA [AGGAGGTCTAG_LTGcore_CT_RTGcore_TT] (site AGGAGGTCTAG) (LTG core: CT, RTG core: TT) | 0.203
15 | AGGAGGTCTTGGGTTCTAACCTGTTGCCTAG [AGGAGGTCTAG_LTGcore_CT_RTGcore_CT] (site AGGAGGTCTAG) (LTG core: CT, RTG core: CT) | 1.59
16 | AGGAGGTCTTGGGTTCTAACCTGTTGCCTAT [AGGAGGTCTAG_LTGcore_CT_RTGcore_AT] (site AGGAGGTCTAG) (LTG core: CT, RTG core: AT) | 0.407
17 | AGGAGGTCTTGGGTTCTAACCTGTTGCCTCA [AGGAGGTCTAG_LTGcore_CT_RTGcore_TG] (site AGGAGGTCTAG) (LTG core: CT, RTG core: TG) | 0.322
18 | AGGAGGTCTTGGGTTCTAACCTGTTGCCTCG [AGGAGGTCTAG_LTGcore_CT_RTGcore_CG] (site AGGAGGTCTAG) (LTG core: CT, RTG core: CG) | 0.386
19 | AGGAGGTCTTGGGTTCTAACCTGTTGCCTGT [AGGAGGTCTAG_LTGcore_CT_RTGcore_AC] (site AGGAGGTCTAG) (LTG core: CT, RTG core: AC) | 0.126
20 | AGGAGGTTCTGGGTTCTAACCTGTTGCCTGA [AGGAGGTCTAG_LTGcore_TC_RTGcore_TC] (site AGGAGGTCTAG) (LTG core: TC, RTG core: TC) | 0.0288
21 | AGGCCTCAATGGGTTCTAACCTGTTGCCTTT [AGGCCTCCTAG_LTGcore_AA_RTGcore_AA] (site AGGCCTCCTAG) (LTG core: AA, RTG core: AA) | 0.0414
22 | AGGCCTCACTGGGTTCTAACCTGTTGCCTAG [AGGCCTCCTAG_LTGcore_AC_RTGcore_CT] (site AGGCCTCCTAG) (LTG core: AC, RTG core: CT) | 0.134

Row | Sequence | recombinant barcode read abundance (log10)
23 | AGGCCTCAGTGGGTTCTAACCTGTTGCCTCT [AGGCCTCCTAG_LTGcore_AG_RTGcore_AG] (site AGGCCTCCTAG) (LTG core: AG, RTG core: AG) | 0.182
24 | AGGCCTCCCTGGGTTCTAACCTGTTGCCTAG [AGGCCTCCTAG_LTGcore_CC_RTGcore_CT] (site AGGCCTCCTAG) (LTG core: CC, RTG core: CT) | 0.293
25 | AGGCCTCCTTGGGTTCTAACCTGTTGCCTCA [AGGCCTCCTAG_LTGcore_CT_RTGcore_TG] (site AGGCCTCCTAG) (LTG core: CT, RTG core: TG) | 0.154
26 | AGGCCTCCTTGGGTTCTAACCTGTTGCCTGC [AGGCCTCCTAG_LTGcore_CT_RTGcore_GC] (site AGGCCTCCTAG) (LTG core: CT, RTG core: GC) | 0.112
27 | AGGCCTCCTTGGGTTCTAACCTGTTGCCTGG [AGGCCTCCTAG_LTGcore_CT_RTGcore_CC] (site AGGCCTCCTAG) (LTG core: CT, RTG core: CC) | 0.337
28 | AGGCCTCCTTGGGTTCTAACCTGTTGCCTTG [AGGCCTCCTAG_LTGcore_CT_RTGcore_CA] (site AGGCCTCCTAG) (LTG core: CT, RTG core: CA) | 0.722
29 | AGGCCTCGGTGGGTTCTAACCTGTTGCCTCC [AGGCCTCCTAG_LTGcore_GG_RTGcore_GG] (site AGGCCTCCTAG) (LTG core: GG, RTG core: GG) | 0.0521
30 | AGGCCTCTCTGGGTTCTAACCTGTTGCCTGA [AGGCCTCCTAG_LTGcore_TC_RTGcore_TC] (site AGGCCTCCTAG) (LTG core: TC, RTG core: TC) | 0.047
31 | AGGCCTCTTTGGGTTCTAACCTGTTGCCTAA [AGGCCTCCTAG_LTGcore_TT_RTGcore_TT] (site AGGCCTCCTAG) (LTG core: TT, RTG core: TT) | 0.196
32 | AGGCCTCTTTGGGTTCTAACCTGTTGCCTAG [AGGCCTCCTAG_LTGcore_TT_RTGcore_CT] (site AGGCCTCCTAG) (LTG core: TT, RTG core: CT) | 0.103
33 | AGGCGGGCATGGGTTCTAACCTGTTGCGGAG [AGGCGGGCTCC_LTGcore_CA_RTGcore_CT] (site AGGCGGGCTCC) (LTG core: CA, RTG core: CT) | 2.3
34 | AGGCGGGCATGGGTTCTAACCTGTTGCGGTG [AGGCGGGCTCC_LTGcore_CA_RTGcore_CA] (site AGGCGGGCTCC) (LTG core: CA, RTG core: CA) | 0.776
35 | AGGCGGGCGTGGGTTCTAACCTGTTGCGGCG [AGGCGGGCTCC_LTGcore_CG_RTGcore_CG] (site AGGCGGGCTCC) (LTG core: CG, RTG core: CG) | 0.0653
36 | AGGCGGGCTTGGGTTCTAACCTGTTGCGGAA [AGGCGGGCTCC_LTGcore_CT_RTGcore_TT] (site AGGCGGGCTCC) (LTG core: CT, RTG core: TT) | 0.532
37 | AGGCGGGCTTGGGTTCTAACCTGTTGCGGGG [AGGCGGGCTCC_LTGcore_CT_RTGcore_CC] (site AGGCGGGCTCC) (LTG core: CT, RTG core: CC) | 0.756
38 | AGGCGGGGGTGGGTTCTAACCTGTTGCGGCC [AGGCGGGCTCC_LTGcore_GG_RTGcore_GG] (site AGGCGGGCTCC) (LTG core: GG, RTG core: GG) | 0.0346
39 | AGGCGGGTATGGGTTCTAACCTGTTGCGGAG [AGGCGGGCTCC_LTGcore_TA_RTGcore_CT] (site AGGCGGGCTCC) (LTG core: TA, RTG core: CT) | 0.232
40 | AGGCGGGTTTGGGTTCTAACCTGTTGCGGAG [AGGCGGGCTCC_LTGcore_TT_RTGcore_CT] (site AGGCGGGCTCC) (LTG core: TT, RTG core: CT) | 0.475
41 | AGGCGGTACTGGGTTCTAACCTGTTGCTTAG [AGGCGGTCTAA_LTGcore_AC_RTGcore_CT] (site AGGCGGTCTAA) (LTG core: AC, RTG core: CT) | 0.272
42 | AGGCGGTATTGGGTTCTAACCTGTTGCTTAT [AGGCGGTCTAA_LTGcore_AT_RTGcore_AT] (site AGGCGGTCTAA) (LTG core: AT, RTG core: AT) | 0.109
43 | AGGCGGTCCTGGGTTCTAACCTGTTGCTTAG [AGGCGGTCTAA_LTGcore_CC_RTGcore_CT] (site AGGCGGTCTAA) (LTG core: CC, RTG core: CT) | 0.341
44 | AGGCGGTCCTGGGTTCTAACCTGTTGCTTGG [AGGCGGTCTAA_LTGcore_CC_RTGcore_CC] (site AGGCGGTCTAA) (LTG core: CC, RTG core: CC) | 0.334
